What was measured:
Assay in all cases: Transcription accelerating activity through RARs (PLAP reporter in COS-1 cells)
Format in all cases: cell-based
Settings in all cases: relative to ED30 of all-trans retinoic acid = 1, ED30 = concentration giving 30% of activity induced by 1 μM all-trans retinoic acid
RAR-β = target: T1, RAR-β (Homo sapiens, UniProt P10826)
T1 construct: expressed in transfected cells; host or cells: COS-1 (African green monkey kidney cells), transient lipofection
T1 sequence (P10826 1-455): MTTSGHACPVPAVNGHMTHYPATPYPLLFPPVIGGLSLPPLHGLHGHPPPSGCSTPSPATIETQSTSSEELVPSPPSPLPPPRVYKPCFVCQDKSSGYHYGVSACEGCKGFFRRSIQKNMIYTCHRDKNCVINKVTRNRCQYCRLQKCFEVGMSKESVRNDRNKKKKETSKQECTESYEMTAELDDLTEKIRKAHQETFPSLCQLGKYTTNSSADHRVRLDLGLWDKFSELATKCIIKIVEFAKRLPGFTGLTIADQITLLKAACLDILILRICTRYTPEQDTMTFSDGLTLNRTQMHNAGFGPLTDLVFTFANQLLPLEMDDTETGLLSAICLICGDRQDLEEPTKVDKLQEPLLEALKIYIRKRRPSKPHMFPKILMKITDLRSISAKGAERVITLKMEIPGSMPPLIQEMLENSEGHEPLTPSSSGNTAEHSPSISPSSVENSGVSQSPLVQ
From the text: (§1) Measurement of the Activities of Accelerating Trans-cription Through RARs
(§2) Human RAR Expression Vectors and secretory alkaline phosphatase (PLAP) gene vectors (PLAP vectors) containing in a state integrated into the upstream a competent sequence whose expression is […] through binding with RAR depending on a ligand were temporarily transferred into COS-1 (African green monkey kidney cells), and the PLAP which had been produced depending on a ligand and secreted into a culture medium was analyzed by the chemiluminescence method to determine the transcription-accelerating activity of each compound. Further, the selectivity of each compound among RARs was determined by comparing the transcription accelerating activities of the compound for the receptors with each other.
(§3) On a 60-mm culture dish were scattered 2.5×10^4 COS-1 cells. Four days after, human RAR α, β and γ expression vectors and PLAP vectors were transferred into the cells each in an amount of 4 μg by the lipofection method. Another day after, the resulting cells were recovered, and put on a 96-well culture plate in an amount of 2×10^4 per unit well. Four hours after, the cells were put on a medium containing charcoal-treated fetal bovine serum, followed by the addition of a dilution of all-trans retinoic acid or a test compound. After the lapse of 36 hours, the supernatant was recovered and the resulting samples were treated at 65° C. for 10 minutes to eliminate the non-specific activity. 15 μl of each sample was mixed with 60 μl of a 28 mM sodium carbonate buffer(pH10), followed by the addition of 75 μl of Smilight (trade name, a product of Sumitomo Metal Industries, Ltd., substrate for chemiluminescence). The resulting mixture was reacted at 37° C. for 30 minutes and the intensity of luminescence was determined. The compounds which will be described below induced the transcription activities of RARs dependently on the concentration.

RAR-γ = target: T2, RAR-γ (Homo sapiens, UniProt P13631)
T2 construct: expressed in transfected cells; host or cells: COS-1 (African green monkey kidney cells), transient lipofection
T2 sequence (P13631 1-454): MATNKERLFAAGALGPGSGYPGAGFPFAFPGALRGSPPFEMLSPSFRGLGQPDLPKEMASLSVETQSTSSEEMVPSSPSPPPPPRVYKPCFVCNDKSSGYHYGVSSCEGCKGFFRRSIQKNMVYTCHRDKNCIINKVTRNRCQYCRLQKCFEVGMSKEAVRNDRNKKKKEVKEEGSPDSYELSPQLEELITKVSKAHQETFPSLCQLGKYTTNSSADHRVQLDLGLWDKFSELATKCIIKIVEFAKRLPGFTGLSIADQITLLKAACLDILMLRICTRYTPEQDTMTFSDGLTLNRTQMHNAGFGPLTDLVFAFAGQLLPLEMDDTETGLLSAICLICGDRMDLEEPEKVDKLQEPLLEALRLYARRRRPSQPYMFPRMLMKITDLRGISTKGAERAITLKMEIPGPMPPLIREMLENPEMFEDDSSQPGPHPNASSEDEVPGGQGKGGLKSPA
From the text: as §1, §2, §3

RAR-α = target: T3, RAR-α (Homo sapiens, UniProt P10276)
T3 construct: expressed in transfected cells; host or cells: COS-1 (African green monkey kidney cells), transient lipofection
T3 sequence (P10276 1-462): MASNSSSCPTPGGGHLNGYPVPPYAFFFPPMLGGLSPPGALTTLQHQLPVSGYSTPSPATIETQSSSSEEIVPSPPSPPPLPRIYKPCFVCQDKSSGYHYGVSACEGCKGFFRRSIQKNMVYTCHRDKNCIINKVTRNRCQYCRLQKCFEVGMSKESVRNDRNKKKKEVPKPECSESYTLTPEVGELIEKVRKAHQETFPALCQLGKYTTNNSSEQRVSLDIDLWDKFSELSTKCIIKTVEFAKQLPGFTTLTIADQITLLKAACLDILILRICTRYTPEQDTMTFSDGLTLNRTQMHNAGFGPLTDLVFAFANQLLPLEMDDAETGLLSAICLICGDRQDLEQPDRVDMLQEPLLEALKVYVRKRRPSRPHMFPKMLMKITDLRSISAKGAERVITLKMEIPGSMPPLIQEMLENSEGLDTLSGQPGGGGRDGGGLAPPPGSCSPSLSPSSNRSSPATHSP
From the text: as §1, §2, §3

Structure (SMILES)	Transcription accelerating activity Relative ED30 RAR-β (RAR-β)	Transcription accelerating activity Relative ED30 RAR-γ (RAR-γ)	Transcription accelerating activity Relative ED30 RAR-α (RAR-α)
Cc1ccc(Cl)c2oc(-c3ccc(-c4ccc(C(=O)O)cc4)[nH]3)cc12 [Example 53, 4-{2-[5-(7-Chloro-4-methylbenzofuran-2-yl)pyrrolyl]}benzoic acid]	26	430	0.17
Cc1ccc(F)c2cc(-c3ccc(-c4ccc(C(=O)O)cc4)[nH]3)oc12 [Example 110, 4-{2-[5-(4-Fluoro-7-methylbenzofuran-2-yl)pyrrolyl]}benzoic acid]	210	790	0.47
Cc1ccc(Cl)c2sc(-c3ccc(-c4ccc(C(=O)O)cc4)[nH]3)cc12 [Example 75, 4-{2-[5-(7-Chloro-4-methylbenzothiophen-2-yl)pyrrolyl]}benzoic acid]	150	2000	0.80
Cc1cc(C)c2cc(-c3ccc(-c4ccc(C(=O)O)cc4)[nH]3)oc2c1C [Example 113, 4-{2-[5-(4,6,7-Trimethylbenzofuran-2-yl)pyrrolyl]}benzoic acid]	24	150	0.80
Cc1ccc(C)c2sc(-c3ccc(-c4ccc(C(=O)O)cc4)[nH]3)cc12 [Example 77, 4-{2-[5-(4,7-Dimethylbenzothiophen-2-yl)pyrrolyl]}benzoic acid]	65	130	0.35
Cc1ccc(C)c2c1C=C(c1ccc(-c3ccc(C(=O)O)cc3)[nH]1)CO2 [Example 127, 4-{2-[5-(5,8-Dimethyl-2H-chromen-3-yl)pyrrolyl]}benzoic acid]	240	3600	1.8
O=C(O)c1ccc(-c2ccc(-c3cc4c(Cl)cccc4o3)[nH]2)cc1 [Example 60, 4-{2-[5-(4-Chlorobenzofuran-2-yl)pyrrolyl]}benzoic acid]	110	750	0.72
